Counter-ions that a name gives are not always drawn.

The test has as its target T1, human HSL (Homo sapiens, UniProt Q05469).
T1 construct: generate a full length human HSL ORF with a 3′-His6 tag; His6 (C); made in house; host or cells: High 5 insect cells (baculovirus, pFast-BAC)
T1 sequence (Q05469 1-1076): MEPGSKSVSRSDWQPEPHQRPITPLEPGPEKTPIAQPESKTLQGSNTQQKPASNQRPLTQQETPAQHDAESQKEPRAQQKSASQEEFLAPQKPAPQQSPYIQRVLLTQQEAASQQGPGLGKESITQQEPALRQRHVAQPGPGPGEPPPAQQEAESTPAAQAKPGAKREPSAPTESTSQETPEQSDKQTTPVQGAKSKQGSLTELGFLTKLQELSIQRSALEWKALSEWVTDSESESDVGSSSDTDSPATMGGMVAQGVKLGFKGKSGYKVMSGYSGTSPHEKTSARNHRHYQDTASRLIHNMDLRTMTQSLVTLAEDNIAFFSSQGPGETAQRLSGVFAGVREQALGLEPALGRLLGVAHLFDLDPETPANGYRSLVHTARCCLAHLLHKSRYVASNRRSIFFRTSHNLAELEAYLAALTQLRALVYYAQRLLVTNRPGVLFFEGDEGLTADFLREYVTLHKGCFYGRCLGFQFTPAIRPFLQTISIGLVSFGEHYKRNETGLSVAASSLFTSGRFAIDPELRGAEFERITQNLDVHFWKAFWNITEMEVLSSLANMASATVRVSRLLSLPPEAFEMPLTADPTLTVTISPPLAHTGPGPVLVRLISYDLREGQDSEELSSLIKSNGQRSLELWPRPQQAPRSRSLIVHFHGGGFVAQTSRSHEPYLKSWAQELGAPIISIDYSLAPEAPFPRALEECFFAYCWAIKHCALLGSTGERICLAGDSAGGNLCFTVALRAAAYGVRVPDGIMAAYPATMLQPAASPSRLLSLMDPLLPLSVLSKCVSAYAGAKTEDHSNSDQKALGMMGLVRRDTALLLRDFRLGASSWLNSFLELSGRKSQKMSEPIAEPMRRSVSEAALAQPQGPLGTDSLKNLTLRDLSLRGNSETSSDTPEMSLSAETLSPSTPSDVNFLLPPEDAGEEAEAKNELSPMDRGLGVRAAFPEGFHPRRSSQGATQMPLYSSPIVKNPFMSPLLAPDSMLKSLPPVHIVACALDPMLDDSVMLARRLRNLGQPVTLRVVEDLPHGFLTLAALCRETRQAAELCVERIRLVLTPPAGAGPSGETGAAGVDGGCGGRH
Put plainly: Human Hormone-Sensitive Lipase (HSL) enzyme inhibition assay (colorimetric, DMPT substrate). The class given is biochemical. Particulars: read-out: HSL hum IC50. The gist of the method:
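Full-length human HSL carrying a C-terminal His6 tag was expressed in High 5 insect cells via baculovirus and purified on Ni-NTA. Compounds from 3-fold DMSO series were mixed with 1.5 mM DMPT substrate suspension in 100 mM MOPS pH 7.2 with 0.2 mg/ml fatty acid-free BSA, then enzyme (15 ug/ml) was added for 20 minutes at 37 °C. Released thiol was detected with DTNB plus SDS/Triton X-100 (15 minutes, room temperature) at 405 nm.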
As to `CCCCc1ccc(NC(=O)C2(N)CCN(S(=O)(=O)c3ccccc3Cl)CC2)cc1` [Example 104, 4-Amino-1-(2-chloro-benzenesulfonyl)-piperidine-4-carboxylic acid (4-butyl-phenyl)-amide], the IC50 is 60 nM.

As for `NC1(C(=O)Nc2ccc(OCC(F)(F)F)cc2)CCN(S(=O)(=O)c2ccccc2Cl)CC1` [Example 105, 4-Amino-1-(2-chloro-benzenesulfonyl)-piperidine-4-carboxylic acid [4-(2,2,2-trifluoro-ethoxy)-phenyl]-amide], the IC50 was 110 nM.

With `CC(C)c1ccc(NC(=O)C2(N)CCN(C(=O)Nc3ccc(F)cc3)CC2)cc1` [Example 106, 4-Amino-piperidine-1,4-dicarboxylic acid 1-[(4-fluoro-phenyl)-amide]-4-[(4-isopropyl-phenyl)-amide]; hydrochloride], the IC50 is 210 nM.

Turning to `CC(C)c1ccc(NC(=O)N2CCC(N)(C(=O)Nc3ccc(C(C)C)cc3)CC2)cc1` [Example 107, 4-Amino-piperidine-1,4-dicarboxylic acid bis-[(4-isopropyl-phenyl)-amide]; hydrochloride], the IC50 was determined as 80 nM.

In the case of `CC(C)c1ccc(NC(=O)C2(N)CCN(C(=O)Nc3ccc(Cl)cc3)CC2)cc1` [Example 108, 4-Amino-piperidine-1,4-dicarboxylic acid 1-[(4-chloro-phenyl)-amide] 4-[(4-isopropyl-phenyl)-amide]; hydrochloride], the concentration for half-maximal inhibition (IC50) came to 100 nM.

On to `CC(C)c1ccc(NC(=O)C2(N)CCN(Cc3ccccc3F)CC2)cc1` [Example 109, 4-Amino-1-(2-fluoro-benzyl)-piperidine-4-carboxylic acid (4-isopropyl-phenyl)-amide; hydrochloride], for which the 50% inhibitory concentration (IC50) worked out at 80 nM.

Take `CC(C)c1ccc(NC(=O)C2(N)CCN(Cc3ccccc3Cl)CC2)cc1` [Example 110, 4-Amino-1-(2-chloro-benzyl)-piperidine-4-carboxylic acid (4-isopropyl-phenyl)-amide; hydrochloride]: the 50% inhibitory concentration (IC50) was 80 nM.

On to `CC(C)c1ccc(NC(=O)C2(N)CCN(Cc3cccc(F)c3)CC2)cc1` [Example 111, 4-Amino-1-(3-fluoro-benzyl)-piperidine-4-carboxylic acid (4-isopropyl-phenyl)-amide; hydrochloride], for which the concentration for half-maximal inhibition (IC50) is 240 nM.

As to `CC(C)c1ccc(NC(=O)C2(N)CCN(Cc3ccc(C(F)(F)F)cc3)CC2)cc1` [Example 112, 4-Amino-1-(4-trifluoromethyl-benzyl)-piperidine-4-carboxylic acid (4-isopropyl-phenyl)-amide; hydrochloride], the half-maximal inhibitory concentration (IC50) came to 300 nM.

Regarding `CC(C)c1ccc(NC(=O)C2(N)CCN(Cc3ccccc3OC(F)(F)F)CC2)cc1` [Example 113, 4-Amino-1-(2-trifluoromethoxy-benzyl)-piperidine-4-carboxylic acid (4-isopropyl-phenyl)-amide; hydrochloride], the half-inhibitory concentration (IC50) was 80 nM.

For the compound `CC(C)c1ccc(NC(=O)C2(N)CCN(Cc3ccccc3C(F)(F)F)CC2)cc1` [Example 114, 4-Amino-1-(2-trifluoromethyl-benzyl)-piperidine-4-carboxylic acid (4-isopropyl-phenyl)-amide; hydrochloride], the 50% inhibitory concentration (IC50) turned out to be 210 nM.

Consider `CC(C)c1ccc(CN2CCC(N)(C(=O)Nc3ccc(C(C)C)cc3)CC2)cc1` [Example 115, 4-Amino-1-(4-isopropyl-benzyl)-piperidine-4-carboxylic acid (4-isopropyl-phenyl)-amide; hydrochloride], for which the IC50 came to 230 nM.

In the case of `CC(C)c1ccc(NC(=O)C2(N)CCN(S(=O)(=O)c3ccccc3Cl)CC2)cc1` [Example 116, 4-Amino-1-(2-chloro-benzenesulfonyl)-piperidine-4-carboxylic acid (4-isopropyl-phenyl)-amide; hydrochloride], the half-inhibitory concentration (IC50) is 40 nM.

`CC(C)c1ccc(NC(=O)C2(N)CCN(S(=O)(=O)c3cccc(Cl)c3)CC2)cc1` [Example 117, 4-Amino-1-(3-chloro-benzenesulfonyl)-piperidine-4-carboxylic acid (4-isopropyl-phenyl)-amide]: the 50% inhibitory concentration (IC50) turned out to be 110 nM.

For `CC(C)c1ccc(NC(=O)C2(N)CCN(S(=O)(=O)c3ccccc3F)CC2)cc1` [Example 118, 4-Amino-1-(2-fluoro-benzenesulfonyl)-piperidine-4-carboxylic acid (4-isopropyl-phenyl)-amide], the IC50 is 40 nM.

`Cc1ccccc1S(=O)(=O)N1CCC(N)(C(=O)Nc2ccc(C(C)C)cc2)CC1` [Example 119, 4-Amino-1-(toluene-2-sulfonyl)-piperidine-4-carboxylic acid (4-isopropyl-phenyl)-amide]: the IC50 came to 60 nM.

With `CC(C)CS(=O)(=O)N1CCC(N)(C(=O)Nc2ccc(C(C)C)cc2)CC1` [Example 120, 4-Amino-1-(2-methyl-propane-1-sulfonyl)-piperidine-4-carboxylic acid (4-isopropyl-phenyl)-amide; hydrochloride], the IC50 amounted to 230 nM.

For `CC(C)c1ccc(NC(=O)C2(N)CCN(Cc3ccc(F)cc3)CC2)cc1` [Example 121, 4-Amino-1-(4-fluoro-benzyl)-piperidine-4-carboxylic acid (4-isopropyl-phenyl)-amide; hydrochloride], the concentration for half-maximal inhibition (IC50) was 160 nM.

With `CC(C)c1ccc(NC(=O)C2(N)CCN(Cc3ccccc3)CC2)cc1` [Example 122, 4-Amino-1-benzyl-piperidine-4-carboxylic acid (4-isopropyl-phenyl)-amide], the IC50 worked out at 130 nM.

`CC(C)c1ccc(NC(=O)C2(N)CCN(C(=O)c3ccccc3OC(F)(F)F)CC2)cc1` [Example 123, 4-Amino-1-(2-trifluoromethoxy-benzoyl)-piperidine-4-carboxylic acid (4-isopropyl-phenyl)-amide]: the 50% inhibitory concentration (IC50) stood at 200 nM.

Regarding `CC(C)c1ccc(NC(=O)C2(N)CCN(C(=O)c3ccccc3Cl)CC2)cc1` [Example 124, 4-Amino-1-(2-chloro-benzoyl)-piperidine-4-carboxylic acid (4-isopropyl-phenyl)-amide], the IC50 amounted to 230 nM.

As to `CC(C)c1ccc(NC(=O)C2(N)CCN(C(=O)c3ccc(Cl)cc3)CC2)cc1` [Example 125, 4-Amino-1-(4-chloro-benzoyl)-piperidine-4-carboxylic acid (4-isopropyl-phenyl)-amide], the IC50 came out at 360 nM.

Turning to `CC(C)c1ccc(NC(=O)C2(N)CCN(C(=O)c3ccc(C(F)(F)F)cc3)CC2)cc1` [Example 126, 4-Amino-1-(4-trifluoromethyl-benzoyl)-piperidine-4-carboxylic acid (4-isopropyl-phenyl)-amide], the IC50 was 250 nM.

`CC(C)c1ccc(NC(=O)C2(N)CCN(C(=O)c3ccc(F)cc3)CC2)cc1` [Example 127, 4-Amino-1-(4-fluoro-benzoyl)-piperidine-4-carboxylic acid (4-isopropyl-phenyl)-amide]: the IC50 was 490 nM.

In the case of `CC(C)CC(=O)N1CCC(N)(C(=O)Nc2ccc(C(C)C)cc2)CC1` [Example 128, 4-Amino-1-(3-methyl-butyryl)-piperidine-4-carboxylic acid (4-isopropyl-phenyl)-amide], the half-inhibitory concentration (IC50) worked out at 660 nM.

Turning to `CC(C)CCC(=O)N1CCC(N)(C(=O)Nc2ccc(C(C)C)cc2)CC1` [Example 129, 4-Amino-1-(4-methyl-pentanoyl)-piperidine-4-carboxylic acid (4-isopropyl-phenyl)-amide], the IC50 is 480 nM.

For the compound `CC(C)c1ccc(NC(=O)C2(N)CCN(C(=O)c3ccc(C(F)(F)F)nc3)CC2)cc1` [Example 130, 4-Amino-1-(6-trifluoromethyl-pyridine-3-carbonyl)-piperidine-4-carboxylic acid (4-isopropyl-phenyl)-amide], the IC50 worked out at 520 nM.

For the compound `CC(C)c1ccc(NC(=O)C2(N)CCN(S(=O)(=O)c3ccc(C(F)(F)F)cc3Cl)CC2)cc1` [Example 131, 4-Amino-1-(2-chloro-4-trifluoromethyl-benzenesulfonyl)-piperidine-4-carboxylic acid (4-isopropyl-phenyl)-amide], the IC50 was 500 nM.

In the case of `CCc1ccc(NC(=O)C2(N)CCN(C(=O)OCc3ccccc3)CC2)cc1` [Example 132, 4-Amino-4-(4-ethyl-phenylcarbamoyl)-piperidine-1-carboxylic acid benzyl ester], the concentration for half-maximal inhibition (IC50) came to 460 nM.

The IC50 is the concentration that gives 50% inhibition.
